The source of these data is patent US10730886B2, “Compound having effect of inhibiting platelet aggregation and salt thereof, and composition for preventing or treating thrombotic diseases, containing same” (SHIN POONG PHARMACEUTICAL CO., LTD., priority 2015, dated 2020).

Each structure is given as a SMILES string.

The first data set deals with human liver cells (HepG2). The experiment in a line: Cytotoxicity in human liver cells HepG2 (WST-1). It counts as cell-based. To be noted: HepG2, 40 mM, control. On the procedure: 5-3. Evaluation of Cytotoxicity of Candidate Substances Using Human Liver Cells
Experiments were conducted to evaluate cytotoxicity in human liver cells (HepG2). HepG2 cells, which are human liver carcinoma cell lines, were cultured in DMEM (Dulbecco's minimum essential medium) supplemented with 10% FBS (fetal bovine serum) and 1% Penicillin/Streptomycin at 37° C. and 5% CO2. The cells were cultured in a 48 well plate at 4×10^4 cells/well for 24 hours and then used in the experiments. The HepG2 cells were treated with the candidate substances (250 μM) for 18 hours, and then the medium was removed and WST-1 was added, followed by shading for 3 hours for reaction. After 3 hours, the supernatant was taken and absorbance was measured at 450 nm. Cell viability was calculated by comparing the absorbance measured after adding WST-1 to HepG2 cells not treated with the candidate substances. Acetaminophen (40 mM) was used as a control.
Turning to `CC(=O)Nc1ccc(O)cc1` [Acetaminophen, reference compound], the “Cell vaibility (%)” value is listed as 35.3 ± 3.5%.

For the next data set, the system named is Sprague-Dawley rats. The experiment in a line: Bleeding side effect (tail bleeding time) after single oral administration. It counts as in vivo. To be noted: rat, 25 μM (so in the source), tail cut 1 hour after administration. As to the method:
Male Sprague-Dawley rats (250 to 300 g) were fasted overnight and then were orally administered with the candidate substances at each concentration. After 1 hour, the rats were anesthetized by intraperitoneal injection of urethane (1.25 g/kg). The 3 mm portion of the tail tip of the rats was cut and carefully wiped every 30 seconds. Bleeding time was measured in […] until no more blood was drawn, and when the bleeding lasted longer than 30 minutes, the bleeding time was recorded as 30 minutes.
With `CC(=O)Oc1ccccc1C(=O)O` [Aspirin, aspirin, reference compound], the “Bleeding time” value came to 9.5 ± 0.8 min.

The data set is the same for the next values; noted with them: rat, 100 μM (so in the source), tail cut 1 hour after administration.
On to `CC(=O)Oc1ccccc1C(=O)O` [Aspirin, aspirin, reference compound], for which the “Bleeding time” value is 15.1 ± 0.8 min.

The next data set concerns Human Platelet Rich Plasma (PRP). The experiment in a line: Shear stress-induced platelet aggregation inhibition in human platelet rich plasma (PRP), cone-plate viscometer. Particulars: Homo sapiens, Platelet, Table 1 summary bins; concentration and matrix not given; read-out: Inhibitory effect of shear stress-induced platelet aggregation. It counts as cell-based. On the procedure:
1-1. Measurement of Platelet Aggregation Inhibitory Effect Using Human Platelet Rich Plasma (PRP)
Blood was collected from the veins of healthy male volunteers who had not taken any medication for more than 2 weeks. All related studies were conducted under the approval of the Seoul National University Institutional Review Board (IRB No. 1305/001-016). During the whole process of study the use of glass containers or glass pipettes was avoided, and the experiments were performed at room temperature. To separate platelet rich plasma (PRP), the blood was collected with 3.2% sodium citrate as an anticoagulant. The whole blood was centrifuged at 150 g for 15 minutes to obtain the supernatant (PRP), and the residue was centrifuged at 2,000 g for 20 minutes to obtain platelet poor plasma (PPP). The number of platelets of the PRP thus obtained was counted with an optical microscope using a hemacytometer. PRP was diluted with PPP so as to include 3×10^8 platelets per 1 ml, and then used in the experiments. PRP was put on a cone-plate viscometer (RotoVisco 1, Thermo Fischer Scientific, USA), and shear stress was applied to the PRP at 37° C. for 3 minutes at a shear rate of 10,800 s^−1. In order to evaluate candidate substances, prior to the induction of platelet aggregation, 598.8 μl of PRP was treated with 1.2 μl of 25 μM candidate substance and incubated at 37° C. for 3 minutes using a thermomixer. After applying the shear stress, 20 μl of PRP was fixed in 280 μl of a suspension buffer containing 0.5% glutaraldehyde (134 mM NaCl, 2.9 mM KCl, 1.0 mM MgCl2.6H2O, 10.0 mM HEPES, 5.0 mM dextrose, 12.0 mM NaHCO3, 0.34 mM Na2HPO4, 0.3% BSA, pH 7.4). Then, the number of single platelets in the suspension was counted using a hemacytometer. The degree of inhibition by the candidate substance was calculated according to the following formula (1). The degree of inhibition was determined by the method described below. No shear stress-applied group served as a control, and only shear stress-applied group served as positive control. Degree of inhibition (%)=[(1−A/B)×100]/[(1−A/C)×100] Formula 1
A: Number of single platelets in the shear stress-applied sample after treatment with candidate substance
B: Number of single platelets in the control group with no shear stress applied
C: Number of single platelets in the positive control group with only shear stress applied
On to `O=C(c1ccc(O)c(O)c1)N1CCC(c2noc3ccc(F)cc23)CC1` [Example 2, (3,4-Dihydroxyphenyl)(4-(5-fluorobenzo[d]isoxazol-3-yl)piperidin-1-yl)methanone], for which the inhibition at 25 µM fell in the range of 20 to 30%.
Consider `O=C(NCC1CN(Cc2ccc(F)cc2)CCO1)c1ccc(O)c(O)c1` (centres unmarked) [Example 3, N-((4-(4-Fluorobenzyl)morpholin-2-yl)methyl)-3,4-dihydroxybenzamide], for which the inhibition at 25 µM was at least 30%.
For the compound `O=C(NC1CCSC1=O)c1ccc(O)c(O)c1` (centres unmarked) [Example 4, 3,4-Dihydroxy-N-(2-oxotetrahydrothiophen-3-yl)benzamide], the inhibition at 25 µM was at least 30%.
With `O=C(NCCCCCCCCCNC(=O)c1ccc(O)c(O)c1)c1ccc(O)c(O)c1` [Example 5, N,N′-(Nonan-1,9-diyl)bis(3,4-dihydroxybenzamide)], the inhibition at 25 µM lay within 20 to 30%.
On the same count and under the same terms, for `O=C(c1ccc(O)c(O)c1)N1CCC(OC(c2ccc(Cl)cc2)c2ccccn2)CC1` (centres unmarked) [Example 6, (4-((4-Chlorophenyl)(pyridin-2-yl)methoxy)piperidin-1-yl)(3,4-dihydroxyphenyl)methanone] the value was 20 to 30%; for `O=C(c1ccc(O)c(O)c1)N1CCC(O[C@@H](c2ccc(Cl)cc2)c2ccccn2)CC1` [Example 7, (S)-(4-((4-Chlorophenyl)(pyridin-2-yl)methoxy)piperidin-1-yl)(3,4-dihydroxyphenyl)methanone], 20 to 30%; for `COC(=O)[C@H](Cc1c[nH]c2ccccc12)NC(=O)c1ccc(O)c(O)c1` [Example 8, (S)-Methyl-2-(3,4-dihydroxybenzamido)-3-(1H-indol-3-yl)propanoate], 20 to 30%.
Same read-out and setting: the result for `CCCc1nn(C)c(C(N)=O)c1NC(=O)c1ccc(O)c(O)c1` [Example 9, 4-(3,4-Dihydroxybenzamido)-1-methyl-3-propyl-1H-pyrazole-5-carboxamide] reads 20 to 30%.
Take `Cc1occc(=O)c1OC(=O)c1ccc(O)c(O)c1` [Example 10, 2-Methyl-4-oxo-4H-pyran-3-yl 3,4-dihydroxybenzoate]: the inhibition at 25 µM is 20 to 30%.
The same measure, in the same setting: the result for `O=C(c1ccc(O)c(O)c1)N1CCN(c2ccccc2)CC1` [Example 11, (3,4-Dihydroxyphenyl)(4-phenylpiperazin-1-yl)methanone] reads at least 30%; that for `C#Cc1cccc(NC(=O)c2ccc(O)c(OC)c2)c1` [Example 16, N-(3-Ethynylphenyl)-4-hydroxy-3-methoxybenzamide], at least 30%; that for `CNC(=O)c1cc(Oc2ccc(NC(=O)c3ccc(O)c(OC)c3)cc2)ccn1` [Example 17, 4-(4-(4-Hydroxy-3-methoxybenzamido)phenoxy)-N-methylpicolinamide], 20 to 30%.
The same measure, in the same setting: for `COc1cc(C(=O)N2CCC(OC(c3ccc(Cl)cc3)c3ccccn3)CC2)ccc1O` (centres unmarked) [Example 18] the value was at least 30%.
Take `COc1cc(C(=O)NCc2c(CO)cnc(C)c2O)ccc1O` [Example 19, 4-Hydroxy-N-((3-hydroxy-5-(hydroxymethyl)-2-methylpyridin-4-yl)methyl)-3-methoxybenzamide]: the inhibition at 25 µM was in the range of 20 to 30%.
As to `O=C(c1cc(O)ccc1O)N1CCC(OC(c2ccc(Cl)cc2)c2ccccn2)CC1` (centres unmarked) [Example 21, (4-((4-Chlorophenyl)(pyridin-2-yl)methoxy)piperidin-1-yl)(2,5-dihydroxyphenyl)methanone], the inhibition at 25 µM was in the range of 20 to 30%.
On to `O=C(NCC1CN(Cc2ccc(F)cc2)CCO1)c1cc(O)ccc1O` (centres unmarked) [Example 22, N-((4-(4-Fluorobenzyl)morpholin-2-yl)methyl)-2,5-dihydroxybenzamide], for which the inhibition at 25 µM is at least 30%.
In the case of `COc1ccc(CCNC(=O)c2cc(O)ccc2O)cc1OC` [Example 24, N-(3,4-Dimethoxyphenethyl)-2,5-dihydroxybenzamide], the inhibition at 25 µM is 20 to 30%.
For the compound `O=C(NCCc1cccs1)c1cc(O)ccc1O` [Example 25, 2,5-Dihydroxy-N-(2-(thiophen-2-yl)ethyl)benzamide], the inhibition at 25 µM is 20 to 30%.
For `O=C(NC1CCSC1=O)c1cc(O)ccc1O` (centres unmarked) [Example 26, 2,5-Dihydroxy-N-(2-oxotetrahydrothiophen-3-yl)benzamide], the inhibition at 25 µM lay in the range of 20 to 30%.

In the next data set the test system is carotid artery shear stress model. The experiment in a line: Carotid artery shear stress model, amount of thrombus. Particulars: rat, 50 mg/kg oral, twice a day for 3 days after operation. It is filed as in vivo, Sprague-Dawley rats. As to the method: Vehicle (0.5% methylcellulose), clopidogrel (8 mg/kg), aspirin (50 mg/kg) or a candidate substance was orally administered to male Sprague-Dawley rats (250 to 300 g). 2 hours after administration, the rats were anesthetized by ketamine/rompun (ketamine/xylazine) cocktail 0.1 ml/100 g. Except for the normal control group, the right cervical skin of the experimental animals was incised to expose the common carotid artery. A surgical tube with a length of 1 mm and an inside diameter of 0.58 mm was inserted into the exposed carotid artery and tied with a single thread. The exposed site and the operation site were treated with an anti-adhesion agent, and then sutured for the animals to recover. After the surgery, vehicle, clopidogrel, aspirin or a candidate substance was orally administered to the rats twice a day for 3 days. On the fourth day, 2 hours after the final administration, urethane (100 mg/300 μl/100 g) was administered intraperitoneally to the rats to induce anesthesia, and the operation site was opened to separate a total of 1 cm of the blood vessel, 5 mm above and 5 mm below the surgical tube. The separated blood vessel was perfused with 0.2 ml of 0.9% saline at 0.3 ml/min to remove the remaining blood, and then maintained in 1 ml of protein lysis buffer (NaOH 2 g, Na2CO3 0.1 g in 500 ml D.W). After collected, the blood vessel thrombus was double-boiled in boiling water together with the protein lysis buffer. 200 μl of the reaction solution (10 ml bicinchoninic acid solution+200 μl 4% aqueous solution of copper sulfate) was added to 10 μl of the heated thrombus, and the mixture was reacted at 37° C. for 30 minutes and quantified with an ELISA reader (562 nm).
In the case of `CC(=O)Oc1ccccc1C(=O)O` [Aspirin, aspirin, reference compound], the “Amount of thrombus (mg, Mean ± SEM)” value is reported as 0.092 ± 0.007 mg.

In the next data set the test system is ICR mouse.
Assay: not given
To be noted: male, in vivo, po, 100 mg/kg, 7 days.
Turning to `CC(=O)Oc1ccccc1C(=O)O` [Aspirin, aspirin, reference compound], the “Bleeding time” value amounted to 12.3 ± 0.7 min; the “Bleeding time (min)” value is reported as “exceeded 12 min”; the “bleeding time delayed, times compared with the control group” value is reported as “about 7.6 times”.
